{"source": "paper PMC5702387", "about": "“The Antifungal Plant Defensin HsAFP1 Is a Phosphatidic Acid-Interacting Peptide Inducing Membrane Permeabilization” (Frontiers in Microbiology, 2017)", "type_in_all_cases": "binding", "key": {"HsAFP1 [1]": {"molecular_target": "T1, HsAFP1 (Heuchera sanguinea, UniProt P0C8Y5)", "T1 construct": "mature plant defensin, recombinantly produced in Pichia pastoris and purified", "assay": "DSC of lipid vesicles (lipid phase transition)", "conditions": "PC/PG/PA 75/15/10 vesicles, 0.5 mM; 40 uM HsAFP1; HEPES pH 7, low salt"}, "HsAFP1 [2]": {"molecular_target": "T2, HsAFP1 (Heuchera sanguinea, UniProt P0C8Y5, H32A/R52A)", "T2 construct": "mature plant defensin, recombinantly produced in Pichia pastoris and purified", "T2 sequence (P0C8Y5 whole entry H32A/R52A)": "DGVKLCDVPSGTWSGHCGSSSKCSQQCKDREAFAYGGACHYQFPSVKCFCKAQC", "assay": "rELISA, immobilised lipid", "conditions": "12.5 uM peptide; PBS-based blocking buffer pH 7.4; 37 C"}, "HsAFP1 [3]": {"molecular_target": "T1, HsAFP1", "assay": "rELISA, immobilised lipid", "conditions": "12.5 uM HsAFP1; pH 7.4; 37 C"}}}
{"compound": "CCCCCCCCCCCCCC(=O)OC[C@H](COP(=O)(O)O)OC(=O)CCCCCCCCCCCCC", "note": "[dimyristoylphosphatidic acid]", "values": [{"measurement": "DSC of lipid vesicles (lipid phase transition)", "setting": "HsAFP1 [1]", "result": "HsAFP1 specifically interacted with vesicles containing PA"}]}
{"compound": "phosphatidic acid", "values": [{"measurement": "% reduction of binding vs native HsAFP1", "setting": "HsAFP1 [2]", "result": 77, "unit": "%"}]}
{"compound": "methyl-PA", "values": [{"measurement": "% reduction of binding vs PA", "setting": "HsAFP1 [3]", "result": "> 75", "unit": "%"}]}
